Laboratory results taken from patent US20050241012A1, “Multigene profiling in the kidney to tailor drug therapy” (priority 2003, published 2005).
Entries after “also recorded” stand apart in the source; their conditions may differ. Structures can show the parent of a compound that is named as a salt.

Tests used:
mouse Oat3 = target: T1, mouse Oat3 (Mus musculus, UniProt O88909); settings: 90 nM [3H]estrone sulfate
T1 sequence (O88909 1-537): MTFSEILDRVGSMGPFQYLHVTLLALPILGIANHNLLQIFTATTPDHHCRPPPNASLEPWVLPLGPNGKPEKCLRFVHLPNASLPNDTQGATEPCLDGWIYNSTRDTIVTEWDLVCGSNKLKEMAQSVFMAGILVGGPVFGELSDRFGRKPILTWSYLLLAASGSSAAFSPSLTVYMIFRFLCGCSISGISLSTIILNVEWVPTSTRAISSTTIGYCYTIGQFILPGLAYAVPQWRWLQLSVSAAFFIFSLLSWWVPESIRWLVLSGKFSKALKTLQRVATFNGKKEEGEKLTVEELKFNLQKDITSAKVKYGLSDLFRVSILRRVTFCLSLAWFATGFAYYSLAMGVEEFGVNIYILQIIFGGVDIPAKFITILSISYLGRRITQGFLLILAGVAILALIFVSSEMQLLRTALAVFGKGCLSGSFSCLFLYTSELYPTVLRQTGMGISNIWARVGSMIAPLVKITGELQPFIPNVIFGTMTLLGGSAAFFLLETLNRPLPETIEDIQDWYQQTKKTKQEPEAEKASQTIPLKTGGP
Protocol: FIG. 13 oocytes three days after injection with either mouse Oat1 or mouse Oat3 cRNA. Oocytes were randomly sorted into test groups and 1 h uptake determined.
Transport Assays-Xenopus oocyte isolation procedures and uptake assay. Ovaries were removed from tricaine methanesulfonate anesthetized adult female Xenopus laevis and follicle-free stage V and stage VI oocytes were isolated by treatment with collagenase A. After an overnight recovery period in Barth's buffer at 18° C., oocytes were microinjected with 20 ng of capped cRNA synthesized from linearized cDNA (mMessage mMachine in vitro transcription kit, Ambion, Inc., Austin, Tex.). […] Oocyte radioactivity was measured in disintegrations/min (dpm) in a Packard 1600TR liquid scintillation counter with external quench correction.

renal slices = experiment: Renal tissue slice uptake assay, wild-type and Oat3−/− mice; settings: for inhibition of taurocholate, estrone sulfate and para-aminohippurate uptake in wild-type renal slices / ES transport in Oat3−/− renal slices in the presence of inhibitor: 1 mM inhibitor; for ES transport in Oat3−/− renal slices in the presence of inhibitor / renal slice uptake in Oat3−/− mice compared with wild-type: 100 nM estrone sulfate; for renal slice uptake in Oat3−/− mice compared with wild-type: 1 h, taurocholate or para-aminohippurate
Protocol: (§1) Data were calculated as tissue to medium T/M ratios and are presented as mean values ±S. E. (3 slices, treatment).
(§2) Renal and hepatic tissue slice preparation and uptake assays were performed according to standard protocols. Four- to 6-month-old mice were euthanized by CO2 inhalation, and the liver and kidneys were immediately placed into freshly oxygenated ice-cold saline. Tissue slices (˜0.5 mm; ˜5-10 mg, wet weight) were cut with a Stadie-Riggs microtome and maintained in ice-cold modified Cross and Taggart saline (in mM: 95 NaCl, 80 mannitol, 5 KCl, 0.74 CaCl2, and 9.5 Na2PO4, pH 7.4). […] Conditions for the PAH experiments were optimized for Oat1 by the addition of 10 μM glutarate to the uptake buffer. After incubation the slices were removed from the uptake medium, blotted, weighed, dissolved in 1 ml of 1M NaOH, neutralized with 1 ml of 1M HCl, and assayed by liquid scintillation spectroscopy. Duplicate medium samples (50 μl) were also assayed, and data are presented as tissue to medium (T/M) ratios (i.e. dpm/mg of tissue divided by dpm/μl of medium).
Statistics. The renal slice data were compared using unpaired Student's t-test. Differences in mean values between the control and inhibited conditions were considered significant when p≦0.05.

choroid plexus = experiment: Accumulation in isolated choroid plexus, confocal fluorescence microscopy, wild-type and Oat3−/− mice; settings: for reduction of cellular accumulation (cellular fluorescence) in CP from Oat3−/− mice: both, mouse, 45 min, 1 μM, pH 7.4
Description: The CP is composed of capillary projections surrounded by a single layer of cells that protrude into the cerebrospinal fluid-filled ventricles of the brain. The orientation is such that the CSF bathes the apical membrane of the cell and the basal membrane is toward the underlying fenestrated capillary. (A and C) Transmitted light images of wild-type and Oat3^−/− CP, respectively, showing the tissue structure. (B and D) Corresponding fluorescence micrographs of the CP shown in (A) and (C). Confocal images were acquired 45 min after exposure to 1 μM FL in the aCSF medium. […] The positions of representative cells and capillaries (CUD) are indicated by arrows. A 20-μm bar is shown.
Fluorescence levels in cells and vessels of CP from 4 wild-type and 4 Out3^−/− mice were measured (n=5-10 adjacent cellular and capillary areas/CP). […] Data are given as mean ±S.E. for each animal.
Choroid plexus isolation. Adult male and female wild-type and Oat3^−/− mice were euthanized with CO2.
Confocal Fluorescence Microscopy. CP were imaged as using an inverted Zeiss model 510 laser scanning confocal microscope fitted with a 40μ water immersion objective (numeric aperture, 1.2). Samples were illuminated with the 488-nm line of an argon laser; a 510-nm dichroic filter was in the light path, and a long pass emission filter (515 nm) was positioned in front of the detector. […] For each CP, 5-10 adjacent cellular and capillary areas were selected. After background subtraction, the average pixel intensity for each area was calculated and the values reported graphically for each CP are the means ±S.E. for all selected areas (n˜5-10). Values reported in the text are mean ±S.E. of the individual mean values for each CP as determined above (n˜4-6 animals/group).

hepatic slices = experiment: Hepatic tissue slice uptake assay, wild-type and Oat3−/− mice; settings: 1 h
Protocol: as §1, §2

`CCCN(CCC)S(=O)(=O)c1ccc(C(=O)O)cc1` [probenecid] was tested, and the “inhibition of Oat3-mediated ES transport in oocytes” value (mouse Oat3; 1 mM probenecid) was “completely blocked”, the “inhibition of taurocholate, estrone sulfate and para-aminohippurate uptake in wild-type renal slices” value (renal slices) was “sensitive to inhibition” and the “ES transport in Oat3−/− renal slices in the presence of inhibitor” value (renal slices) was “additional drop”. For the same molecule, the “inhibition of residual FL uptake in CP from Oat3 knockout animals” value (choroid plexus) was “probenecid-sensitive”.
`O=C1OC2(c3ccc(O)cc3Oc3cc(O)ccc32)c2ccccc21` [FL, fluorescein] was tested, and the “reduction of cellular accumulation (cellular fluorescence) in CP from Oat3−/− mice” value (choroid plexus; C57BL/6J) was about 75% and the “reduction of cellular accumulation (cellular fluorescence) in CP from Oat3−/− mice” value (choroid plexus) was “about 75%”.
In the case of `Nc1ccc(C(=O)NCC(=O)O)cc1` [PAH, para-aminohippurate], the “mediated uptake in Oat3-expressing oocytes” value (mouse Oat3; 1 h uptake, 10 μM [3H]PAH, 500 nM [3H]taurocholate) is reported as “observed”, the “renal slice uptake in Oat3−/− mice compared with wild-type” value (renal slices; 10 μM TEA) is reported as “significant (p<0.001) decrease; also recorded: significantly reduced” and the hepatic slice uptake (hepatic slices) is reported as “complete lack”.
With `CC[N+](CC)(CC)CC` [TEA, tetraethylammonium] the “renal slice uptake in Oat3−/− mice compared with wild-type” value (renal slices; 10 μM TEA) was “unaltered; also recorded: unaffected”.
With `O=C1OC(c2ccc(O)c(S(=O)(=O)O)c2)(c2ccc(O)c(S(=O)(=O)O)c2)c2c(Br)c(Br)c(Br)c(Br)c21` [BSP, bromo-sulfophthalein] the “inhibition of taurocholate, estrone sulfate and para-aminohippurate uptake in wild-type renal slices” value (renal slices) was “sensitive to inhibition” and the “ES transport in Oat3−/− renal slices in the presence of inhibitor” value (renal slices) was “additional drop”.
For `C=C[C@H]1C[N@@]2CC[C@H]1C[C@H]2[C@H](O)c1ccnc2ccc(OC)cc12` [Quinine sulfate, quinine sulfate], the “inhibition of renal uptake of [14C]TEA” value (renal slices; 200 μM quinine sulfate, 10 μM TEA) was “sensitive”.
